In US6365605B1, “Substituted hydrochromenopyrroles” (Les Laboratoires Servier, priority 1997, dated 2002):

Biological target: T1, D3 receptors (expressed in CHO cells) (Homo sapiens, UniProt P35462)
T1 construct: expressed in transfected cells
Experiment: In vitro measurement of the affinity to D2 and D3 receptors, [125I]-iodosulpiride radioligand, membrane preparations
Format: binding
Conditions: difference of pKi, D3 vs D2 receptors expressed in CHO cells
Method: The affinity of the compounds of the invention to D2 and D3 receptors (expressed independently and in a stable manner in CHO cells) was determined with membrane preparations using [^125I]-iodosulpiride as radioligand (Sokoloff et al., quoted reference). The results are expressed as pKi.

T1 sequence (P35462 whole entry): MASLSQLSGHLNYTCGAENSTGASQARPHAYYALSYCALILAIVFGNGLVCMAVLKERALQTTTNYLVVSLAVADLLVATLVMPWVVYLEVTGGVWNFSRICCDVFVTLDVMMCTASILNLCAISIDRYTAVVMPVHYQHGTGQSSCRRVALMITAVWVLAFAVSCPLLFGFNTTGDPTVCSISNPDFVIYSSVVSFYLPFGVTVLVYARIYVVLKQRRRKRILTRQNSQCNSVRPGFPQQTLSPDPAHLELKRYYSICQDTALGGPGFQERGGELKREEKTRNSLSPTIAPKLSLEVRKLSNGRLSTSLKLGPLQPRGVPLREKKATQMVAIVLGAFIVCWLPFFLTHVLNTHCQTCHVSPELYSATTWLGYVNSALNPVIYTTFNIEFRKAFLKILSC

Structure (SMILES): CC(=O)Nc1ccc(CCN2CC3COc4ccc(C#N)cc4C3C2)cc1.Cl (stereo not shown) [Example 4, (3aα,9bβ)-2-[2-(4-Acetylaminophenyl)ethyl]-8-cyano-1,2,3,3a,4,9b-hexahydrochromeno[3,4-c]pyrrole hydrochloride]
- selectivity for D3 receptors compared with D2 receptors: > 1.5 log
